# Measurements published in paper PMC8286840, “Identifying SARS-CoV-2 antiviral compounds by screening for small molecule inhibitors of Nsp3 papain-like protease” (Biochemical Journal, 2021).
# Counter-ions that a name gives are not always drawn. Like-named read-outs stand apart in the source and are kept apart here. Where a SMILES comes first, the peptide text is derived from it.
# How the values were obtained:
# [1] = molecular target: T1, SARS-CoV-2 PLpro (nsp3 1564–1878) (Severe acute respiratory syndrome coronavirus 2, UniProt P0DTD1); assay: biochemical; parameters: FRET-quenched peptide (Pro3) cleavage by PLpro, 10 min pre-incubation, slope over 20 min, normalised to no-compound control; settings: low concentration screen, read-out: % of control remaining
# [2] = molecular target: T1, SARS-CoV-2 PLpro (nsp3 1564–1878); assay: biochemical; parameters: FRET-quenched peptide (Pro3) cleavage by PLpro, 10 min pre-incubation, slope over 20 min, normalised to no-compound control; settings: high concentration screen, read-out: % of control remaining
smiles,measurement,setting,value
O=C1CCc2ccc(OCCCCN3CCN(c4cccc(Cl)c4Cl)CC3)cc2N1 [Aripiprazole],remaining activity at 1.25 µM,[1]; Well no.=1844,93.9%
same,remaining activity at 1.25 µM,[1]; Well no.=8237,102%
same,remaining activity at 3.75 µM,[2]; Well no.=1844,95.9%
same,remaining activity at 3.75 µM,[2]; Well no.=8237,95.5%
COc1cccc2c1cc([N+](=O)[O-])c1c(C(=O)O)cc3c(c12)OCO3 [Aristolochic acid A],remaining activity at 1.25 µM,[1]; Well no.=3081,106%
same,remaining activity at 3.75 µM,[2]; Well no.=3081,103%
CO[C@H]1O[C@@H]2O[C@@]3(C)CC[C@H]4[C@H](C)CC[C@@H]([C@H]1C)[C@@]24OO3 [Artemether (SM-224)],remaining activity at 1.25 µM,[1]; Well no.=5188,94.9%
same,remaining activity at 3.75 µM,[2]; Well no.=5188,97.4%
C[C@H]1[C@H](OC(=O)CCC(=O)O)O[C@@H]2O[C@@]3(C)CC[C@H]4[C@H](C)CC[C@@H]1[C@@]24OO3 [Artesunate],remaining activity at 1.25 µM,[1]; Well no.=2200,100%
same,remaining activity at 1.25 µM,[1]; Well no.=3083,96%
same,remaining activity at 3.75 µM,[2]; Well no.=2200,98.2%
same,remaining activity at 3.75 µM,[2]; Well no.=3083,102%
CCCNC(C)C(=O)Nc1c(C)csc1C(=O)OC (stereo not drawn) [Articaine HCl],remaining activity at 1.25 µM,[1]; Well no.=5367,95.8%
same,remaining activity at 3.75 µM,[2]; Well no.=5367,94.3%
CC[C@@H]1/C=C(\C)C[C@H](C)C[C@H](OC)[C@H]2O[C@@](O)(C(=O)C(=O)N3CCCC[C@H]3C(=O)O[C@H](/C(C)=C/[C@@H]3CC[C@@H](O)[C@H](OC)C3)[C@H](C)[C@@H](O)CC1=O)[C@H](C)C[C@@H]2OC [Ascomycin],remaining activity at 1.25 µM,[1]; Well no.=6638,102%
same,remaining activity at 1.25 µM,[1]; Well no.=7410,98%
same,remaining activity at 3.75 µM,[2]; Well no.=6638,98.9%
same,remaining activity at 3.75 µM,[2]; Well no.=7410,96.8%
O=C1O[C@H]([C@@H](O)CO)C(O)=C1O [Ascorbic acid],remaining activity at 1.25 µM,[1]; Well no.=4039,99.8%
same,remaining activity at 3.75 µM,[2]; Well no.=4039,99.5%
CCCCCCCCCCCCCCCC(=O)OC[C@H](O)[C@H]1OC(=O)C(O)=C1O [Ascorbyl palmitate],remaining activity at 1.25 µM,[1]; Well no.=4041,102%
same,remaining activity at 3.75 µM,[2]; Well no.=4041,105%
C[C@H]1[C@H](C)CC[C@]2(C(=O)O)CC[C@]3(C)C(=CC[C@@H]4[C@@]5(C)C[C@@H](O)[C@H](O)[C@@](C)(CO)[C@@H]5CC[C@]43C)[C@H]12 [Asiatic acid],remaining activity at 1.25 µM,[1]; Well no.=3509,100%
same,remaining activity at 3.75 µM,[2]; Well no.=3509,103%
COC(=O)[C@H](Cc1ccccc1)NC(=O)[C@@H](N)CC(=O)O [Aspartame] (H-Asp-Phe-OMe),remaining activity at 1.25 µM,[1]; Well no.=5048,100%
same,remaining activity at 1.25 µM,[1]; Well no.=7302,102%
same,remaining activity at 3.75 µM,[2]; Well no.=5048,101%
same,remaining activity at 3.75 µM,[2]; Well no.=7302,102%
CC1=C(/C=C/C(C)=C/C=C/C(C)=C/C=C/C=C(C)/C=C/C=C(C)/C=C/C2=C(C)C(=O)[C@@H](O)CC2(C)C)C(C)(C)C[C@H](O)C1=O [Astaxanthin],remaining activity at 1.25 µM,[1]; Well no.=296,93.3%
same,remaining activity at 3.75 µM,[2]; Well no.=296,92.4%
COc1ccc(CCN2CCC(Nc3nc4ccccc4n3Cc3ccc(F)cc3)CC2)cc1 [Astemizole],remaining activity at 1.25 µM,[1]; Well no.=2054,102%
same,remaining activity at 3.75 µM,[2]; Well no.=2054,102%
C[C@@H]1O[C@@H](O[C@H]2C(=O)c3c(O)cc(O)cc3O[C@@H]2c2ccc(O)c(O)c2)[C@H](O)[C@H](O)[C@H]1O [Astilbin],remaining activity at 1.25 µM,[1]; Well no.=6924,114%
same,remaining activity at 3.75 µM,[2]; Well no.=6924,106%
CC(C)(O)[C@H]1CC[C@@](C)([C@H]2[C@@H](O)C[C@@]3(C)[C@@H]4C[C@H](O[C@@H]5O[C@H](CO)[C@@H](O)[C@H](O)[C@H]5O)[C@H]5C(C)(C)[C@@H](O[C@@H]6OC[C@@H](O)[C@H](O)[C@H]6O)CC[C@@]56C[C@@]46CC[C@]23C)O1 [Astragaloside A],remaining activity at 1.25 µM,[1]; Well no.=5238,98.6%
same,remaining activity at 3.75 µM,[2]; Well no.=5238,102%
CN(C)C(N)=NCCC[C@H](N)C(=O)O [Asymmetric dimethylarginine],remaining activity at 1.25 µM,[1]; Well no.=7119,103%
same,remaining activity at 3.75 µM,[2]; Well no.=7119,102%
COC(=O)N[C@H](C(=O)N[C@@H](Cc1ccccc1)[C@@H](O)CN(Cc1ccc(-c2ccccn2)cc1)NC(=O)[C@@H](NC(=O)OC)C(C)(C)C)C(C)(C)C [Atazanavir sulfate],remaining activity at 1.25 µM,[1]; Well no.=5245,96.5%
same,remaining activity at 3.75 µM,[2]; Well no.=5245,101%
COC(=O)N[C@H](C(=O)N[C@@H](Cc1ccccc1)[C@@H](O)CN(Cc1ccc(-c2ccccn2)cc1)NC(=O)[C@@H](NC(=O)OC)C(C)(C)C)C(C)(C)C [Atazanavir],remaining activity at 1.25 µM,[1]; Well no.=1918,97.5%
same,remaining activity at 3.75 µM,[2]; Well no.=1918,95.7%
CC(C)NCC(O)COc1ccc(CC(N)=O)cc1 (stereo not drawn) [Atenolol],remaining activity at 1.25 µM,[1]; Well no.=2131,103%
same,remaining activity at 1.25 µM,[1]; Well no.=7671,97.3%
same,remaining activity at 3.75 µM,[2]; Well no.=2131,104%
same,remaining activity at 3.75 µM,[2]; Well no.=7671,98.5%
CN(C)C(=O)Nc1cccc(-c2ccc(N(C)C)cc2)c1 [Atglistatin],remaining activity at 1.25 µM,[1]; Well no.=5396,98.8%
same,remaining activity at 3.75 µM,[2]; Well no.=5396,81.1%
CCC1(c2c[nH]cn2)Cc2ccccc2C1 [Atipamezole (hydrochloride)],remaining activity at 1.25 µM,[1]; Well no.=7481,102%
same,remaining activity at 3.75 µM,[2]; Well no.=7481,98.7%
CCC1(c2c[nH]cn2)Cc2ccccc2C1 [Atipamezole],remaining activity at 1.25 µM,[1]; Well no.=6663,101%
same,remaining activity at 3.75 µM,[2]; Well no.=6663,101%
CC(C)c1c(C(=O)Nc2ccccc2)c(-c2ccccc2)c(-c2ccc(F)cc2)n1CC[C@@H](O)C[C@@H](O)CC(=O)O [Atorvastatin Calcium],remaining activity at 1.25 µM,[1]; Well no.=8096,95.7%
same,remaining activity at 3.75 µM,[2]; Well no.=8096,98.2%
O=C1C(O)=C([C@H]2CC[C@H](c3ccc(Cl)cc3)CC2)C(=O)c2ccccc21 [Atovaquone],remaining activity at 1.25 µM,[1]; Well no.=1838,92.3%
same,remaining activity at 3.75 µM,[2]; Well no.=1838,94.9%
COc1ccc(C[C@@H]2c3cc(OC)c(OC)cc3CC[N@+]2(C)CCC(=O)OCCCCCOC(=O)CC[N@@+]2(C)CCc3cc(OC)c(OC)cc3[C@H]2Cc2ccc(OC)c(OC)c2)cc1OC [Atracurium besylate],remaining activity at 1.25 µM,[1]; Well no.=2133,92.8%
same,remaining activity at 3.75 µM,[2]; Well no.=2133,98.2%
CN1[C@@H]2CC[C@H]1C[C@@H](OC(=O)C(CO)c1ccccc1)C2 (stereo partly drawn) [Atropine (sulfate monohydrate)],remaining activity at 1.25 µM,[1]; Well no.=7677,93.8%
same,remaining activity at 3.75 µM,[2]; Well no.=7677,94.5%
C[N+]1(C)[C@@H]2CC[C@H]1C[C@@H](OC(=O)C(CO)c1ccccc1)C2 (stereo partly drawn) [Atropine methyl bromide],remaining activity at 1.25 µM,[1]; Well no.=117,100%
same,remaining activity at 3.75 µM,[2]; Well no.=117,96.6%
C[N+]1(C)[C@@H]2CC[C@H]1C[C@@H](OC(=O)C(CO)c1ccccc1)C2 (stereo partly drawn) [Atropine methyl nitrate],remaining activity at 1.25 µM,[1]; Well no.=245,99.7%
same,remaining activity at 3.75 µM,[2]; Well no.=245,100%
CN1[C@@H]2CC[C@H]1C[C@@H](OC(=O)C(CO)c1ccccc1)C2 (stereo partly drawn) [Atropine sulfate],remaining activity at 1.25 µM,[1]; Well no.=197,99.5%
same,remaining activity at 1.25 µM,[1]; Well no.=3238,102%
same,remaining activity at 3.75 µM,[2]; Well no.=3238,102%
OCC1=C[C@@H](O)[C@@H]2C=CO[C@@H](O[C@@H]3O[C@H](CO)[C@@H](O)[C@H](O)[C@H]3O)[C@H]12 [Aucubin],remaining activity at 1.25 µM,[1]; Well no.=3162,99.3%
same,remaining activity at 3.75 µM,[2]; Well no.=3162,97.6%
